Measured values reported in PubChem BioAssay AID1259407 (Chemical Carcinogenesis Research Information System (CCRIS), 2018).
Activity calls are given as the source filed them. No rule for the calls is given here.

Tested on: CCRIS mutagenicity, Ames/micronucleus/aberration tests
Assay: CCRIS mutagenicity studies
[1] = Test System: AMES SALMONELLA TYPHIMURIUM, Strain/Indicator: TA98, Metabolic Activation: NONE, Method: STANDARD PLATE
[2] = Test System: AMES SALMONELLA TYPHIMURIUM, Strain/Indicator: TA98, Metabolic Activation: RAT, LIVER, S-9, AROCLOR 1254, Method: STANDARD PLATE
[3] = Test System: AMES SALMONELLA TYPHIMURIUM, Strain/Indicator: TA100, Metabolic Activation: NONE, Method: STANDARD PLATE
[4] = Test System: AMES SALMONELLA TYPHIMURIUM, Strain/Indicator: TA100, Metabolic Activation: RAT, LIVER, S-9, AROCLOR 1254, Method: STANDARD PLATE
[5] = Test System: AMES SALMONELLA TYPHIMURIUM, Strain/Indicator: TA1535, Metabolic Activation: NONE, Method: STANDARD PLATE

COc1cccc2c1cc([N+](=O)[O-])c1c(C(=O)O)cc3c(c12)OCO3
mutagenic call (End Point: IN VITRO CHROMOSOMAL ABERRATIONS, Test System: CHO (WBL) CELLS, Metabolic Activation: NONE): active; positive
mutagenic call (End Point: IN VITRO CHROMOSOMAL ABERRATIONS, Test System: CHO (WBL) CELLS, Metabolic Activation: RAT, LIVER, S-9, AROCLOR 1254): active; positive
mutagenic call (End Point: IN VITRO CHROMOSOMAL ABERRATIONS, Test System: CHO CELLS, Metabolic Activation: NONE): active; positive
mutagenic call (End Point: IN VITRO CHROMOSOMAL ABERRATIONS, Test System: CHO CELLS, Metabolic Activation: S-9): active; positive
mutagenic call (End Point: IN VITRO MICRONUCLEUS, Test System: CHO (WBL) CELLS, Metabolic Activation: RAT, LIVER, S-9, AROCLOR 1254): active; positive
mutagenic call (End Point: IN VITRO MICRONUCLEUS, Test System: CHO CELLS, Metabolic Activation: S-9): active; positive
mutagenic call (End Point: In vitro micronucleus, Test System: Human hepatoma (HepG2) cells, Metabolic Activation: None): active; positive
mutagenic call (Test System: AMES SALMONELLA TYPHIMURIUM, Strain/Indicator: D3052, Metabolic Activation: NONE, Method: STANDARD PLATE): inactive; negative
mutagenic call (Test System: AMES SALMONELLA TYPHIMURIUM, Strain/Indicator: D3052, Metabolic Activation: RAT, LIVER, S-9, PHENOBARBITAL, Method: STANDARD PLATE): inactive; negative
mutagenic call (Test System: AMES SALMONELLA TYPHIMURIUM, Strain/Indicator: G46, Metabolic Activation: NONE, Method: STANDARD PLATE): inactive; negative
mutagenic call (Test System: AMES SALMONELLA TYPHIMURIUM, Strain/Indicator: G46, Metabolic Activation: RAT, LIVER, S-9, PHENOBARBITAL, Method: STANDARD PLATE): inactive; negative
mutagenic call (Test System: AMES SALMONELLA TYPHIMURIUM, Strain/Indicator: TA98(NR), Metabolic Activation: NONE, Method: STANDARD PLATE): inactive; negative
mutagenic call (Test System: AMES SALMONELLA TYPHIMURIUM, Strain/Indicator: TA98, Metabolic Activation: NONE): inactive; negative
mutagenic call [1]: inactive; negative
mutagenic call [2]: active; positive
mutagenic call (Test System: AMES SALMONELLA TYPHIMURIUM, Strain/Indicator: TA98, Metabolic Activation: RAT, LIVER, S-9, CLOPHEN A50): inactive; negative
mutagenic call (Test System: AMES SALMONELLA TYPHIMURIUM, Strain/Indicator: TA98, Metabolic Activation: RAT, LIVER, S-9, PHENOBARBITAL, Method: STANDARD PLATE): active; positive
mutagenic call (Test System: AMES SALMONELLA TYPHIMURIUM, Strain/Indicator: TA100(NR), Metabolic Activation: NONE, Method: STANDARD PLATE): inactive; negative
mutagenic call (Test System: AMES SALMONELLA TYPHIMURIUM, Strain/Indicator: TA100(NR), Metabolic Activation: S-9, Method: STANDARD PLATE): inactive; negative
mutagenic call (Test System: AMES SALMONELLA TYPHIMURIUM, Strain/Indicator: TA100, Metabolic Activation: NONE): active; positive
mutagenic call [3]: inactive; negative
mutagenic call [4]: active; positive
mutagenic call (Test System: AMES SALMONELLA TYPHIMURIUM, Strain/Indicator: TA100, Metabolic Activation: RAT, LIVER, S-9, CLOPHEN A50): active; positive
mutagenic call (Test System: AMES SALMONELLA TYPHIMURIUM, Strain/Indicator: TA100, Metabolic Activation: RAT, LIVER, S-9, PHENOBARBITAL, Method: STANDARD PLATE): active; positive
mutagenic call (Test System: AMES SALMONELLA TYPHIMURIUM, Strain/Indicator: TA100, Metabolic Activation: S-9, Method: STANDARD PLATE): active; positive
mutagenic call (Test System: AMES SALMONELLA TYPHIMURIUM, Strain/Indicator: TA102, Metabolic Activation: NONE, Method: STANDARD PLATE): active; positive
mutagenic call (Test System: AMES SALMONELLA TYPHIMURIUM, Strain/Indicator: TA1535, Metabolic Activation: NONE): inactive; negative
mutagenic call [5]: active; positive
mutagenic call (Test System: AMES SALMONELLA TYPHIMURIUM, Strain/Indicator: TA1535, Metabolic Activation: RAT, LIVER, S-9, CLOPHEN A50): inactive; negative
mutagenic call (Test System: AMES SALMONELLA TYPHIMURIUM, Strain/Indicator: TA1535, Metabolic Activation: RAT, LIVER, S-9, PHENOBARBITAL, Method: STANDARD PLATE): active; positive
mutagenic call (Test System: AMES SALMONELLA TYPHIMURIUM, Strain/Indicator: TA1537, Metabolic Activation: NONE): active; positive
mutagenic call (Test System: AMES SALMONELLA TYPHIMURIUM, Strain/Indicator: TA1537, Metabolic Activation: NONE, Method: STANDARD PLATE): active; positive
mutagenic call (Test System: AMES SALMONELLA TYPHIMURIUM, Strain/Indicator: TA1537, Metabolic Activation: RAT, LIVER, S-9, CLOPHEN A50): active; positive
mutagenic call (Test System: AMES SALMONELLA TYPHIMURIUM, Strain/Indicator: TA1537, Metabolic Activation: S-9, Method: STANDARD PLATE): active; positive
mutagenic call (Test System: AMES SALMONELLA TYPHIMURIUM, Strain/Indicator: TA1538, Metabolic Activation: NONE): inactive; negative
mutagenic call (Test System: AMES SALMONELLA TYPHIMURIUM, Strain/Indicator: TA1538, Metabolic Activation: RAT, LIVER, S-9, CLOPHEN A50): inactive; negative
mutagenic call (Test System: AMES SALMONELLA TYPHIMURIUM, Strain/Indicator: TA1978, Metabolic Activation: NONE, Method: STANDARD PLATE): inactive; negative
mutagenic call (Test System: AMES SALMONELLA TYPHIMURIUM, Strain/Indicator: TA1978, Metabolic Activation: RAT, LIVER, S-9, PHENOBARBITAL, Method: STANDARD PLATE): inactive; negative
mutagenic call (Test System: AMES SALMONELLA TYPHIMURIUM, Strain/Indicator: TM677/8-AZAGUANINE, Metabolic Activation: NONE, Method: SUSPENSION/PLATE): active; positive
mutagenic call (Test System: AMES SALMONELLA TYPHIMURIUM, Strain/Indicator: YG1020, Metabolic Activation: NONE, Method: STANDARD PLATE): active; positive
mutagenic call (Test System: AMES SALMONELLA TYPHIMURIUM, Strain/Indicator: YG1021, Metabolic Activation: NONE, Method: STANDARD PLATE): inactive; negative
mutagenic call (Test System: AMES SALMONELLA TYPHIMURIUM, Strain/Indicator: YG1024, Metabolic Activation: NONE, Method: STANDARD PLATE): active; positive
mutagenic call (Test System: AMES SALMONELLA TYPHIMURIUM, Strain/Indicator: YG1025, Metabolic Activation: NONE, Method: STANDARD PLATE): active; positive
mutagenic call (Test System: AMES SALMONELLA TYPHIMURIUM, Strain/Indicator: YG1029, Metabolic Activation: NONE, Method: STANDARD PLATE): active; positive
mutagenic call (Test System: CHINESE HAMSTER OVARY, Strain/Indicator: CHO-K1-BH4 (HGPRT), Metabolic Activation: NONE): active; positive
mutagenic call (Test System: MOUSE LYMPHOMA, Strain/Indicator: L5178Y TK+/TK-, Metabolic Activation: NONE): active; positive
mutagenic call (Test System: MOUSE LYMPHOMA, Strain/Indicator: L5178Y TK+/TK-, Metabolic Activation: RAT, LIVER, S-9, AROCLOR 1254): active; positive

Cc1c2ccccc2c(CBr)c2ccccc12
mutagenic call [1]: active; positive
mutagenic call [3]: inactive; negative

CC(Br)C(Br)CCl (stereo not drawn)
mutagenic call (Test System: AMES SALMONELLA TYPHIMURIUM, Strain/Indicator: TA100, Metabolic Activation: RAT, LIVER, MICROSOMES, PHENOBARBITAL, Method: PREINCUBATION): active; positive
mutagenic call (Test System: AMES SALMONELLA TYPHIMURIUM, Strain/Indicator: TA100, Metabolic Activation: RAT, LIVER, MICROSOMES, Method: PREINCUBATION): active; positive

c1ccc2cc3c(ccc4c5ccccc5ccc34)cc2c1
mutagenic call (Test System: AMES SALMONELLA TYPHIMURIUM, Strain/Indicator: TA100, Metabolic Activation: RAT, LIVER, MICROSOMES, AROCLOR 1254, Method: STANDARD PLATE): inactive; negative
mutagenic call (Test System: AMES SALMONELLA TYPHIMURIUM, Strain/Indicator: TA100, Metabolic Activation: RAT, LIVER, MICROSOMES, BENZO[B]CHRYSENE, Method: STANDARD PLATE): inactive; negative
mutagenic call (Test System: AMES SALMONELLA TYPHIMURIUM, Strain/Indicator: TA100, Metabolic Activation: RAT, LIVER, MICROSOMES, Method: STANDARD PLATE): inactive; negative

CCCCN(N=O)C(=O)NC
mutagenic call (Test System: E. COLI, Strain/Indicator: WP2 UVRA, Metabolic Activation: NONE, Method: PREINCUBATION): active; positive
mutagenic call (Test System: E. COLI, Strain/Indicator: WP2 UVRA, Metabolic Activation: RAT, LIVER, S-9, PHENOBARBITAL AND 5,6-BENZOFLAVONE, Method: PREINCUBATION): active; positive

ONc1ncnc2c1ncn2Cc1ccccc1
mutagenic call (Test System: AMES SALMONELLA TYPHIMURIUM, Strain/Indicator: TA97, Metabolic Activation: NONE, Method: STANDARD PLATE): active; positive
mutagenic call (Test System: AMES SALMONELLA TYPHIMURIUM, Strain/Indicator: TA97, Metabolic Activation: RAT, LIVER, S-9, AROCLOR 1254, Method: STANDARD PLATE): active; positive
mutagenic call [1]: inactive; negative
mutagenic call [2]: active; positive
mutagenic call [3]: active; positive
mutagenic call [4]: active; positive

[N-]=[N+]=NC[C@@H](O)[C@H](O)[C@H](O)[C@@H](O)CO
mutagenic call [5]: active; positive
